Test results published in patent US11925696B2, “Carbonic anhydrase IX targeting agents and methods” (priority 2016, dated 2024).
Where two headings read alike, the source gives them in different places.

Tests used:
HT-29 tumor xenografts = assay type: in vivo, mice
Method: Mice bearing HT-29 tumors were injected via tail vein with 4 nmol Hypoxyfluor alone or in combination with 100-fold excess CA IX inhibitor. Fluorescence images were acquired 4 hours post injection.
Tissues and organs were excised after whole animal imaging and the fluorescence images of the isolated tissues were acquired.
Mice bearing HT-29 tumors were injected via tail vein with the indicated concentrations of Hypoxyfluor and fluorescence images were acquired 4 hours post injection.
Using a 25-gauge needle, six-week-old female nu/nu mice were inoculated subcutaneously in their shoulders with HT-29 cells in RPMI1640 medium (5.0×10^6 cells per mouse). Tumor growth was measured in 2 perpendicular directions every 2 days with a caliper. Tumor volumes were calculated using the formula 0.5×L×W^2, where L is the measurement of the longest axis and W is the measurement of the axis perpendicular to L. Tumor bearing mice were treated via tail vein injection with different concentrations of Hypoxyfluor in the presence or absence of 100-fold CA IX ligand to block all unoccupied CA IX binding sites. Mice were imaged 4 hours post injection using a Caliper IVIS Lumina II Imaging station coupled to an ISOON5160 Andor Nikon camera equipped with Living Image Software Version 4.0. Image acquisition settings were as follows: lamp level, high; excitation, […]; emission, ICG; epi illumination; binning (M) 4; FOV, 12.5; f-stop, 4; acquisition time, 1 s.

HT-29 cells [1] = experiment: Fluorescent/confocal microscopy of Hypoxyfluor and CA IX-Rhodamine on HT-29 cells; assay type: cell-based, human; conditions: 1 hour incubation, unbound conjugate washed off
Method: HT-29 cells (10^5) were seeded into chambered coverglass plates and allowed to grow to confluence over 48-72 hr. […] After incubation for 1 hour at 37° C., cells were rinsed three times with 1 mL of incubation solution to remove unbound fluorescence and 0.5 mL of fresh medium was added to the wells.
HT-29 cells that naturally express CA IX were used to determine cancer cell uptake and binding affinity of the newly synthesized conjugate. […] Fluorescence was quantitated as described above to determine binding affinity.

HT-29 cells [2] = experiment: Binding of Hypoxyfluor to HT-29 cells (cell associated fluorescence); set-up: species or system human
Method: After washing, the remaining fluorescence was quantitated by fluorescence spectroscopy. Error bars represent standard deviation.
HT-29 cells (10^5) were seeded into 24-well BD purecoat amine plates and allowed to grow to confluence over 48-72 hr. Spent medium was replaced with 0.5 mL of fresh medium containing 0.5% bovine serum albumin, and various concentrations of the dye conjugate alone or the dye conjugate plus 100-fold excess CA IX ligand were added. After incubation for 1 hour at 37° C., cells were rinsed with incubation solution (2×1.0 mL) to remove unbound fluorescence and dissolved in 0.5 mL of 1% aqueous sodium dodecyl sulfate. Cell associated fluorescence was then measured using an excitation of 745 nm and emission of 790 nm. All experiments were performed in triplicate. The dissociation constant (KD) was calculated from a plot of cell bound fluorescence (RFU) versus the concentration of fluorescent conjugate added using the program, Graphpad Prism, and assuming a noncooperative single site binding equilibrium.

HT-29 xenografts = conditions: mouse, in vivo
Method: Additional mice were simultaneously injected with 100 nmol of unlabeled L2 or L3 ligand. Major tissues/organs were removed and the amount of radioactivity was determined. The percentage of injected dose/g of tissue was calculated and plotted. Error bars represent standard deviation.
Five-week-old male nu/nu mice were inoculated subcutaneously with HT-29 cells (5.0×10^6/mouse) on their shoulders. Growth of the tumors was measured in two perpendicular directions every 2 days using a caliper (body weights were monitored on the same schedule), and the volumes of the tumors were calculated as 0.5×L×W^2 (L=longest axis and W=axis perpendicular to L in millimeters). […] At various times, animals were sacrificed by CO2 asphyxiation. Images were acquired by shielding the kidneys via a Kodak Imaging Station (In-Vivo FX, Eastman Kodak Company) in combination with CCD camera and Kodak molecular imaging software (version 4.0). Radioimages: illumination source=radio isotope, acquisition time=3 min, f-stop=4, focal plane=5, FOV=160, binning=4. […] Radioactivity of preweighed tissues and ^99mTc-bound conjugates (10 nmol, 150 μCi) in saline (100 μL) was counted in a γ-counter. CPM values were decay corrected, and results were calculated as % injected dose (ID)/gram of wet tissue.

HT-29 cells [3] = experiment: 99mTc conjugates binding to HT-29 cells (apparent KD, gamma counting); set-up: species or system human
Method: HT-29 cells (150,000 cells/well in 500 μL) were seeded into 24-well Falcon plates and allowed to form monolayers over 48 h. […] After incubating for 1 h at 37° C., cells were rinsed twice with 1 mL of medium and 1 mL of tris buffer. After dissolving in 0.5 mL of 0.25 M NaOH (aq), cells were transferred into individual γ-counter tubes and radioactivity was counted using a γ-counter (Packard, Packard Instrument Company). Apparent KD was calculated by plotting bound radioactivity versus the concentration of radiotracer using GraphPad Prism 4.

[4] = 4 nmol tail vein, 4 hours post injection

| SMILES | whole animal fluorescence (HT-29 tumor xenografts; [4]) | whole animal fluorescence with 400 nmol CA IX ligand (HT-29 tumor xenografts; [4]) | whole body fluorescence, dose escalation (HT-29 tumor xenografts; 40 nmol/mouse) | whole body fluorescence, dose escalation (HT-29 tumor xenografts; low and intermediate doses (3 and 13 nmol)) | location of binding on cultured HT-29 cells (HT-29 cells [1]) | Kd (HT-29 cells [2]; 1 hour at 37° C., excitation 745 nm, emission 790 nm, triplicate, read-out: apparent dissociation constant) [nM] | binding after pre-incubation with 100-fold excess of the unconjugated ligand (HT-29 cells [2]; HT-29 cells) | overall percentage of the injected dose retained in the tissues (HT-29 xenografts) | Kd (HT-29 cells [3]; 99mTc-bound conjugate, 1 h at 37° C., read-out: Binding Affinity (apparent KD)) [nM] | decrease of binding by addition of the PEG12-EC20 (HT-29 cells [3]; binding affinity of conjugate versus reported Ki of original ligand) [fold] |
| --- | --- | --- | --- | --- | --- | --- | --- | --- | --- | --- |
| COC(=O)N(CCN(CC(=O)NCCOCCOCCOCCOCCOCCOCCOCCOCCOCCOCCOCCOCCC(=O)CCCc1ccc(OC2=C(/C=C/C3=[N+](CCCCS(=O)(=O)O)c4ccc(S(=O)(=O)O)cc4C3(C)C)CCC/C2=C\C=C2\N(CCCCS(=O)(=O)O)c3ccc(S(=O)(=O)O)cc3C2(C)C)cc1)CC(=O)Nc1ccc(S(N)(=O)=O)cc1)CC(=O)Nc1ccc(S(N)(=O)=O)cc1 [Hypoxyfluor] | predominately detected in the tumor | no fluorescent signal could be detected | nontumor associated fluorescence became apparent | fluorescence was restricted to the tumor | binding was seen on both the cell surface and internal endosomes | 45 | binding was competed | – | – | – |
| N[C@H](CNC(=O)CCOCCOCCOCCOCCOCCOCCOCCOCCOCCOCCOCCOCCNC(=O)CN(CCN(CC(=O)O)CC(=O)Nc1ccc(S(N)(=O)=O)cc1)CC(=O)Nc1ccc(S(N)(=O)=O)cc1)C(=O)N[C@@H](CC(=O)O)C(=O)NC[C@H](CS)C(=O)O [L2-PEG12-EC20] | – | – | – | – | – | – | – | somewhat lower overall percentage of the injected dose being retained in the tissues | 54 | ~7 |
